Experimental findings from US7091351B2, “Vanadium compounds for treating cancer” (Parker Hughes Institute, priority 1998, dated 2006) are described below.

What all share (assay type): cell-based, human
Experiment [1] deals with BT-20 breast cancer cells. The experiment in a line: Immunofluorescence (anti-α-tubulin / toto-3) morphology, BT-20. As to conditions: 25 μM, 48-72 hr. On the procedure:
In some experiments, immunofluorescence was used to examine the morphologic features of vanadocene-treated cancer cells. At the end of the indicated treatment period, cells were washed twice with PBS and fixed in 2% paraformaldehyde. The cells were permeabilized and non-specific binding sites were blocked with 2.5% BSA in PBS containing 0.1% Triton X-100 for 30 min. Tubulin expression was examined by immunofluorescence using a monoclonal antibody against α-tubulin (Sigma Chemical Co, St. Louis, Mo.) at a dilution of 1:1000 and an anti-mouse IgG conjugated to FITC. Cells were washed in PBS and counterstained with toto-3 (Molecular Probes Inc., Eugene, Oreg.) for 10 min at a dilution of 1:1000. Cells were washed again with PBS and the coverslips were mounted with Vectashield (Vector Labs, Burlingame, Calif.) and viewed with a confocal microscope (Bio-Rad MRC 1024) mounted in a Nikon Labhophot upright microscope. Digital images were saved on a Jaz disk and processed with Adobe Photoshop software (Adobe Systems, Mountain View, Calif.).

The next experiment relates to HL-60 cells. The experiment in a line: MTT cytotoxicity assay of oxovanadium(IV) compounds, HL-60. The note with it: 48 hr. The method in brief:
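Exponentially growing cells, 4×10^4 cells/well, were exposed to compound at 0.1 to 250 μM for 48 hours at 37° C in 5% CO2, in triplicate wells. MTT (0.5 mg/ml final) was added for 4 hours, formazan dissolved overnight in 10% SDS/0.01 M HCl and read at 540 nm. IC50 came from non-linear regression.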

The test system of experiment [2] is ARH77 multiple myeloma cells. The experiment is described as follows: MTT cytotoxicity assay of oxovanadium(IV) compounds, ARH77. As to conditions: 48 hr.

For the molecule `[Cl-].[Cl-].[V+4].c1cc[cH-]c1.c1cc[cH-]c1` [VDC, VCp2Cl2], the “morphological features of BT-20 cells” value in experiment [1] is “complete disruption of microtubules”.
For the molecule “bis(4,7-dimethyl-1,10-phenanthroline)sulfatooxovanadium(IV) [Compound 29]”, the half-inhibitory concentration (IC50) worked out at 0.98 ± 0.1 µM in the experiment with HL-60 cells and 0.81 ± 0.9 µM in experiment [2].
